Data taken from ChEMBL document CHEMBL3865792, “Antioxidant and antitumor activity of trolox, trolox succinate, and α-tocopheryl succinate conjugates with nitroxides” (Eur J Med Chem, 2016).

Key:
[1] = Genotoxicity in Escherichia coli PQ37 expressing lacZ gene assessed as ratio of inducible beta-galactosidase activity to alkaline phosphatase activity at 30 mM after 2 hrs by SOS-chromotest relative to control; assay type: toxicity; conditions: Escherichia coli PQ37 cells expressing lacZ gene, read-out: FC
Salmonella typhimurium = assay: Genotoxicity in Salmonella typhimurium TA102 harboring […] mutant assessed as frequency of reversion from histidine auxotrophy to prototrophy at 30 mM after 48 hrs by Ames test (reference value: 209 +/- 10 No _unit); assay type: toxicity, organism-based; conditions: salmonella enterica subsp. enterica serovar typhimurium, 30000 µM
[2] = tested on: Salmonella enterica subsp. enterica serovar Typhimurium; assay: Antioxidant activity in Salmonella typhimurium TA102 harboring […] mutant assessed as inhibition of t-BuO2H-dependant mutant formation at 0.3 uM preincubated with compound followed by t-BuO2H addition after 48 hrs by Ames test; assay type: functional
[3] = tested on: Salmonella enterica subsp. enterica serovar Typhimurium; assay: Antioxidant activity in Salmonella typhimurium TA102 harboring […] mutant assessed as inhibition of t-BuO2H-dependant mutant formation at 3 uM preincubated with compound followed by t-BuO2H addition after 48 hrs by Ames test; assay type: functional
[4] = tested on: Salmonella enterica subsp. enterica serovar Typhimurium; assay: Antioxidant activity in Salmonella typhimurium TA102 harboring […] mutant assessed as inhibition of t-BuO2H-dependant mutant formation at 30 uM preincubated with compound followed by t-BuO2H addition after 48 hrs by Ames test; assay type: functional
[5] = Cytotoxicity against human MCF7 cells assessed as reduction in cell viability after 72 hrs by MTT assay; assay type: functional, cell-based; conditions: MCF7, 72 h
[6] = Cytotoxicity against human RPMI8226 cells assessed as reduction in cell viability after 72 hrs by MTT assay; assay type: functional, cell-based; conditions: RPMI-8226, 72 h
[7] = Cytotoxicity against human HepG2 cells assessed as reduction in cell viability after 72 hrs by MTT assay; assay type: functional, cell-based; conditions: HepG2, 72 h
[8] = Cytotoxicity against human CEM13 cells assessed as reduction in cell viability after 72 hrs by MTT assay; assay type: functional, cell-based; conditions: CEM13, 72 h
[9] = Cytotoxicity against human U937 cells assessed as reduction in cell viability after 72 hrs by MTT assay; assay type: functional, cell-based; conditions: U-937, 72 h
[10] = Cytotoxicity against human MT4 cells assessed as reduction in cell viability after 72 hrs by MTT assay; assay type: functional, cell-based; conditions: MT4, 72 h
[11] = Cytotoxicity against mouse LMTK cells assessed as reduction in cell viability after 72 hrs by MTT assay; assay type: toxicity
[12] = Cytotoxicity against hamster AG17-1 cells assessed as reduction in cell viability after 72 hrs by MTT assay; assay type: toxicity, cell-based, Cricetulus griseus; conditions: Chinese hamster
[13] = Cytotoxicity against human HepG2 cells assessed as reduction in cell viability at 300 uM after 72 hrs by MTT assay; assay type: functional; conditions: HepG2, 72 h
[14] = Cytotoxicity against mouse LMTK cells assessed as reduction in cell viability at 300 uM after 72 hrs by MTT assay; assay type: toxicity; conditions: read-out: INH
[15] = Cytotoxicity against hamster AG17-1 cells assessed as reduction in cell viability at 300 uM after 72 hrs by MTT assay; assay type: toxicity, cell-based, Cricetulus griseus; conditions: Chinese hamster, read-out: INH
[16] = Ratio of IC50 for human MCF7 cells to concentration causing antioxidant activity in Salmonella typhimurium TA102 harboring […] mutant; assay type: functional
[17] = Ratio of IC50 for human RPMI8226 cells to concentration causing antioxidant activity in Salmonella typhimurium TA102 harboring […] mutant; assay type: functional, RPMI-8226
[18] = Ratio of IC50 for human HEPG2 cells to concentration causing antioxidant activity in Salmonella typhimurium TA102 harboring […] mutant; assay type: functional
[19] = Ratio of IC50 for human CEM13 cells to concentration causing antioxidant activity in Salmonella typhimurium TA102 harboring […] mutant; assay type: functional
[20] = Ratio of IC50 for human MT4 cells to concentration causing antioxidant activity in Salmonella typhimurium TA102 harboring […] mutant; assay type: functional
[21] = Ratio of IC50 for human U937 cells to concentration causing antioxidant activity in Salmonella typhimurium TA102 harboring […] mutant; assay type: functional, U-937
[22] = Cytotoxicity against human CEM13 cells assessed as reduction in cell viability at 300 uM after 72 hrs by MTT assay; assay type: functional; conditions: CEM13, 72 h
[23] = Cytotoxicity against human MCF7 cells assessed as reduction in cell viability at 300 uM after 72 hrs by MTT assay; assay type: functional; conditions: MCF7, 72 h

Q: For `Cc1c(C)c2c(c(C)c1OC(=O)CCC(=O)NCC1CC(C)(C)N([O])C1(C)C)CC[C@@](C)(CCC[C@H](C)CCC[C@H](C)CCCC(C)C)O2` (some centres not stated), which fold induction at 2 h, 30000 µM [1] is on record?
A: The fold induction at 2 h, 30000 µM was 1.

Q: And the Activity (Salmonella typhimurium)?
A: Its Activity is 215.

Q: What about the inhibition [2] of the same compound?
A: The inhibition was 1%.

Q: And the inhibition [3]?
A: Its inhibition is 4%.

Q: And the inhibition [4]?
A: The inhibition was 24%.

Q: And the IC50 [5]?
A: Its IC50 is 260 µM.

Q: What about the IC50 [6] of the same compound?
A: Its IC50 is 217 µM.

Q: And the IC50 [7]?
A: The IC50 was over 300 µM.

Q: What about the IC50 [8] of the same compound?
A: The IC50 was 105 µM.

Q: And the IC50 [9]?
A: Its IC50 is 137 µM.

Q: What about the IC50 [10] of the same compound?
A: Its IC50 is 92 µM.

Q: What about the IC50 at 72 h [11] of the same compound?
A: Its IC50 at 72 h is over 300 µM.

Q: What about the IC50 at 72 h [12] of the same compound?
A: The IC50 at 72 h was over 300 µM.

Q: And the inhibition at 300 µM [13]?
A: The inhibition at 300 µM was 10%.

Q: And the cytotoxicity at 72 h, 300 µM [14]?
A: Its cytotoxicity at 72 h, 300 µM is 7%.

Q: What about the cytotoxicity at 72 h, 300 µM [15] of the same compound?
A: Its cytotoxicity at 72 h, 300 µM is 32%.

Q: What about the Ratio [16] of the same compound?
A: Its Ratio is 100 - 1000.

Q: What about the Ratio [17] of the same compound?
A: Its Ratio is 100 - 1000.

Q: What about the Ratio [18] of the same compound?
A: Its Ratio is 100 - 1000.

Q: What about the Ratio [19] of the same compound?
A: Its Ratio is 100 - 1000.

Q: What about the Ratio [20] of the same compound?
A: Its Ratio is 100 - 1000.

Q: And the Ratio [21]?
A: The Ratio was 100 - 1000.

Q: What does the source list for `Cc1c(C)c2c(c(C)c1OC(=O)CCC(=O)NC1CC(C)(C)N([O])C(C)(C)C1)CCC(C)(C(=O)NC1CC(C)(C)N([O])C(C)(C)C1)O2` (configuration not stated)?
A: fold induction at 2 h, 30000 µM [1]: 1; Activity (Salmonella typhimurium): 203; inhibition [2]: 7%; inhibition [3]: 25%; inhibition [4]: 25%; IC50 [5]: 62 µM; IC50 [6]: 68 µM; IC50 [7]: 42 µM; IC50 [8]: > 300 µM; IC50 [9]: 72 µM; IC50 [10]: 41 µM; IC50 at 72 h [11]: 133 µM; IC50 at 72 h [12]: 54 µM; inhibition at 300 µM [22]: 33%; Ratio [16]: 100 - 1000; Ratio [17]: 100 - 1000; Ratio [18]: 100 - 1000; Ratio [19]: 100 - 1000; Ratio [20]: 100 - 1000; Ratio [21]: 100 - 1000

Q: For `Cc1c(C)c2c(c(C)c1OC(=O)CCC(=O)NCC1CC(C)(C)N([O])C1(C)C)CCC(C)(C(=O)NCC1CC(C)(C)N([O])C1(C)C)O2` (configuration not stated), which fold induction at 2 h, 30000 µM [1] is on record?
A: The fold induction at 2 h, 30000 µM was 1.2.

Q: What about the Activity (Salmonella typhimurium) of the same compound?
A: Its Activity is 209.

Q: And the inhibition [2]?
A: The inhibition was 13%.

Q: What about the inhibition [3] of the same compound?
A: The inhibition was 23%.

Q: What about the inhibition [4] of the same compound?
A: The inhibition was 20%.

Q: And the IC50 [5]?
A: Its IC50 is over 300 µM.

Q: What about the IC50 [6] of the same compound?
A: The IC50 was 70 µM.

Q: What about the IC50 [7] of the same compound?
A: Its IC50 is 176 µM.

Q: What about the IC50 [8] of the same compound?
A: Its IC50 is 107 µM.

Q: And the IC50 [9]?
A: Its IC50 is 61 µM.

Q: What about the IC50 [10] of the same compound?
A: The IC50 was 114 µM.

Q: And the IC50 at 72 h [11]?
A: Its IC50 at 72 h is over 300 µM.

Q: What about the IC50 at 72 h [12] of the same compound?
A: Its IC50 at 72 h is 50 µM.

Q: And the inhibition at 300 µM [23]?
A: Its inhibition at 300 µM is 32%.

Q: And the cytotoxicity at 72 h, 300 µM [14]?
A: Its cytotoxicity at 72 h, 300 µM is 10%.

Q: What about the Ratio [16] of the same compound?
A: Its Ratio is 100 - 1000.

Q: And the Ratio [17]?
A: The Ratio was 100 - 1000.

Q: What about the Ratio [18] of the same compound?
A: Its Ratio is 100 - 1000.

Q: What about the Ratio [19] of the same compound?
A: The Ratio was 100 - 1000.

Q: And the Ratio [20]?
A: Its Ratio is 100 - 1000.

Q: And the Ratio [21]?
A: The Ratio was 100 - 1000.

Q: Which fold induction at 2 h, 30000 µM [1] does the source give for `Cc1c(C)c2c(c(C)c1OC(=O)CCC(=O)O)CC[C@@](C)(CCC[C@H](C)CCC[C@H](C)CCCC(C)C)O2` [(+)-ALPHA-TOCOPHERYL SUCCINATE] here?
A: The fold induction at 2 h, 30000 µM was 1.1.

Q: What about the Activity (Salmonella typhimurium) of the same compound?
A: The Activity was 216.

Q: And the inhibition [2]?
A: The inhibition was 56%.

Q: And the inhibition [3]?
A: Its inhibition is 63.2%.

Q: What about the inhibition [4] of the same compound?
A: Its inhibition is 63.6%.

Q: And the IC50 [5]?
A: The IC50 was 57 µM.

Q: And the IC50 [6]?
A: Its IC50 is 63 µM.

Q: And the IC50 [7]?
A: The IC50 was 245 µM.

Q: What about the IC50 [8] of the same compound?
A: Its IC50 is over 300 µM.

Q: What about the IC50 [9] of the same compound?
A: Its IC50 is 113 µM.

Q: And the IC50 [10]?
A: Its IC50 is 66 µM.

Q: What about the IC50 at 72 h [11] of the same compound?
A: Its IC50 at 72 h is 73 µM.

Q: What about the IC50 at 72 h [12] of the same compound?
A: The IC50 at 72 h was 50 µM.

Q: And the inhibition at 300 µM [22]?
A: Its inhibition at 300 µM is 40%.

Q: What does the source list for `Cc1c(C)c2c(c(C)c1O)CCC(C)(C(=O)NC1CC(C)(C)N([O])C(C)(C)C1)O2` (configuration not stated)?
A: fold induction at 2 h, 30000 µM [1]: 1.4; Activity (Salmonella typhimurium): 218; inhibition [2]: 11%; inhibition [3]: 21.5%; inhibition [4]: 4.1%; IC50 [5]: 58 µM; IC50 [6]: 39 µM; IC50 [7]: 54 µM; IC50 [8]: > 300 µM; IC50 [9]: 161 µM; IC50 [10]: 55 µM; IC50 at 72 h [11]: 252 µM; IC50 at 72 h [12]: 186 µM; inhibition at 300 µM [22]: 32%; Ratio [16]: 100 - 1000; Ratio [17]: 100 - 1000; Ratio [18]: 100 - 1000; Ratio [19]: 100 - 1000; Ratio [20]: 100 - 1000; Ratio [21]: 100 - 1000
